{
  "source": "patent US20080085939A1",
  "about": "“Use Of Sphingolipids For Prevention And Treatment Of Atherosclerosis” (priority 2004, published 2008)",
  "type_in_all_cases": "cell-based",
  "key": {"[1]": {"tested_on": "Jurkat cells (T-cells)", "assay": "Cell proliferation/viability of Jurkat cells, Alamar Blue test", "details": "exposure to sphingolipids", "experimental": "(§1) Jurkat cells (T-cells) stably transfected with pNFAT-luc (Clontech, BD Bioscience, Becton, Dickinson and Company, Franklin Lakes, N.J. USA) in which the hygromycin resistance gene was cloned were used. The cells produce the enzyme luciferase under control of the NFAT (nuclear Factor of Activated T cells) promoter. The NFAT-mediated pathways are stimulated in Jurkat cells by PMA and ionomycin. Cells were grown at 37° C. at 5% (v/v) CO2 and 100% relative humidity in medium consisting of RPMI 1640, 10 mM HEPES (N-[2-hydroxyethyl]piperazine-N′-[2-ethanesulfonic acid), 10% FCS, 2 mM L-Glutamine and 1 mM Sodium Pyruvate. The medium was changed every 3 days. Finally the cells were transferred to 96-wells plates.\nBecause sphingolipids can be cytotoxic to cells, the viability of the cells after exposure to the sphingolipids was checked with the Alamar Blue™ (Biosource) test. Almar blue™ (20 μL) and sphingolipids were added simultaneously. The Fluorescence (excitation at 540 nm and emission at 570 nm) was measured in a Wallac 1420 Victor^2 multilabel counter (Perkin Elmer Wellesley, Mass., USA)."}, "[2]": {"tested_on": "NFAT-mediated signal transduction pathway in Jurkat cells (T-cells)", "assay": "PMA/ionomycin-induced stimulation of Jurkat cells, NFAT-luciferase reporter", "details": "10 μg/mL sphingolipid; Jurkat pNFAT-luc; PMA 50 ng/ml and ionomycin 1 μg/ml, 6 hours; FIG. 2", "experimental": "as §1\nA cell suspension of 5×10^5 cells/ml in medium without phenol red was transferred to 96 well microtiter plates (200 μL/well). In triplicate sphingolipids were added (1 or 10 μg/mL). After 30 min PMA (50 ng/ml) and ionomycin (1 μg/ml) was added and the cells were incubated during 6 hours. Then 60 μl cell suspension was mixed with 60 μl steady glo reagent (Promega). Luminescence was measured in a Wallac 1450 microbeta liquid scintillation counter."}, "[3]": {"tested_on": "LPS-induced TNFα release by macrophage U937 cells", "assay": "Effect of sphingolipids on LPS-induced TNFα release by macrophage U937 cells", "details": "differentiated U937 cells; 1 μg/ml or 10 μg/ml sphingolipid for 30 min, then LPS 1 μg/ml for 4 hours; FIG. 1", "experimental": "Undifferentiated U937 cells were grown at 37° C. at 5% (v/v) CO2 and 100% relative humidity in medium consisting of RPMI 1640, and supplemented with 10% Fetal Calf Serum (FCS), 2 mM L-Glutamine, 50 μg/ml Gentamycin and 0.4% Fungizone. The cells were passaged every three days. Finally the cells were transferred to 96-wells microtiter plates. Differentiation was induced by addition of 10 ng/ml PMA (Phorbol 12-myristate 13-acetate). After 24 hours the medium was changed and refreshed every day and the differentiated macrophages were grown for another 3 days at 37° C. The above described differentiated U937 cells were treated for 30 min with 1 μg/ml or 10 μg/ml sphingolipid (1 mg/mL in ethanol). Then the cells were stimulated with LPS (1 μg/ml) for a period of 4 hours. The TNFα release was measured with the TNF-α cytoset™ from Biosource International, Camarillo, Calif., USA."}},
  "data": [
    {"smiles": "CCCCCCCCCCCCCC[C@@H](O)[C@@H](O)[C@@H](N)CO", "note": "[phytosphingosine]", "values": [
      {"measurement": "cell viability of Jurkat cells (Alamar Blue fluorescence)", "setting": "[1]", "result": "No differences"},
      {"measurement": "PMA/ionomycin-induced activation of the NFAT-mediated signal transduction pathway (luciferase activity)", "setting": "[2]", "result": "completely suppressed"},
      {"measurement": "release of TNFα by LPS-stimulated macrophages", "setting": "[3]", "result": "strongly reduced"}
    ]},
    {"smiles": "CCCCCCCCCCCCCCC[C@@H](O)[C@@H](N)CO", "note": "[sphinganine]", "values": [
      {"measurement": "cell viability of Jurkat cells (Alamar Blue fluorescence)", "setting": "[1]", "result": "No differences"},
      {"measurement": "PMA/ionomycin-induced activation of the NFAT-mediated signal transduction pathway (luciferase activity)", "setting": "[2]", "result": "completely suppressed"},
      {"measurement": "release of TNFα by LPS-stimulated macrophages", "setting": "[3]", "result": "strongly reduced"}
    ]},
    {"smiles": "CCCCCCCCCCCCC/C=C/[C@@H](O)[C@@H](N)CO", "note": "[sphingosine]", "values": [
      {"measurement": "cell viability of Jurkat cells (Alamar Blue fluorescence)", "setting": "[1]", "result": "No differences"},
      {"measurement": "PMA/ionomycin-induced activation of the NFAT-mediated signal transduction pathway (luciferase activity)", "setting": "[2]", "result": "completely suppressed"},
      {"measurement": "release of TNFα by LPS-stimulated macrophages", "setting": "[3]", "result": "strongly reduced"}
    ]}
  ]
}
